Reference: patent US10914725B2, “Culture medium additive, culture medium composition, and method for culturing cells or tissue using same” (NISSAN CHEMICAL INDUSTRIES, LTD., priority 2015, dated 2021)

How the values were obtained:
[1] = tested on: adenocarcinomic human alveolar basal epithelial cell line A549; assay: CellTiter-Glo cell survival assay of paclitaxel (Experimental Example 5); format: cell-based; conditions: for IC50: Homo sapiens, A549, cell survival assay by fluorescence, read-out: paclitaxel 50% inhibitory concentration; for relative cell number (no anticancer agent = 1): 10 days
Protocol: As a negative control, a medium composition containing 10 (v/v) % FBS alone in DMEM (manufactured by Wako Pure Chemical Industries, Ltd.) was prepared. As a comparison control, in the same manner as in Experimental Example 3, a medium composition containing 10 (v/v) % FBS and 0.015 (w/v) % of deacylated gellan gum in DMEM (manufactured by Wako Pure Chemical Industries, Ltd.) was prepared. Paclitaxel was also added at the above-mentioned concentration to the negative control and comparison control medium compositions, A549 cells were suspended therein and the suspensions were dispensed. Successively, the plate was cultured in a standing state in a CO2 incubator (37° C., 5% CO2) for 10 days.
CellTiter-Glo Luminescent Cell Viability Assay (manufactured by Promega) (100 μL) was added to each cell culture medium of the negative control and comparison control, the mixture was stood for 10 min at room temperature, and the amount of luminescence was measured by a microplate reader (“FlexStation 3”, manufactured by Molecular Devices) and according to the protocol recommended by Promega. The amount of luminescence of the medium alone was subtracted, whereby the number of viable cells was measured. In addition, 50% inhibitory concentration (nM) of paclitaxel by the amount of luminescence was calculated with the number of viable cells when paclitaxel was not added as 0% inhibition rate.

[2] = tested on: adenocarcinomic human alveolar basal epithelial cell line A549; assay: High content analysis of anticancer agents by cell image analysis (Experimental Example 8); format: cell-based; conditions: for average cell number per sphere / average dead cell number in sphere / average sphere number per 20 mm^2 / projected area: 0.03 (w/v)% low-molecular agar medium, 7 days with agent;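 for projected area: Projected area in square micrometres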
Protocol: Adenocarcinomic human alveolar basal epithelial cell line A549 (manufactured by DS PHARMA BIOMEDICAL CO., LTD.) was suspended in the above-mentioned medium composition containing low-molecular agar at 11,000 cells/mL. […] The plate was stood in a CO2 incubator (37° C., 5% CO2) overnight. The next day, paclitaxel (manufactured by Wako Pure Chemical Industries, Ltd.) and trametinib (manufactured by SANTA CRUZ) were further added by 10 μl per 1 well at a final concentration of 0.001 μM, 0.01 μM and 0.1 μM, respectively, mitomycin C (manufactured by Wako Pure Chemical Industries, Ltd.) at a final concentration of 0.005 μM, 0.05 μM and 0.5 μM, and MK2206 (manufactured by SANTA CRUZ) at a final concentration of 0.001 μM, 0.01 μM, 0.1 μM and 1 μM. Successively, the plate was further cultured in a standing state in a CO2 incubator (37° C., 5% CO2) for 7 days.
Successively, a solution of 20 μg/mL Propidium Iodide (manufactured by BIOMOL) in DMEM (phenol red, L-glutamine free) (manufactured by Wako Pure Chemical Industries, Ltd.) was prepared and added at 10 μL per 1 well, and the culture medium was suspended. The plate was centrifuged at 1,500 rpm for 1 min, and high content analysis was performed by cell image analysis using a cell imaging apparatus (“ArrayScan VTI HCS Reader”, manufactured by Thermo Fisher Scientific). At that time, observation was performed with 20 fields of view per well using a ×10 objective lens, cell outline and cell nucleus were detected from Hoechst33342 fluorescence image, and dead cells were detected from propidium iodide fluorescence image. In addition, 50% inhibitory concentration (nM) of each anticancer agent by high content analysis was calculated from the number of spheres constituted of not less than 5 cells. In this case, the value without addition of the anticancer agent was taken as 0% sphere formation inhibitory rate.

With `CC(=O)O[C@H]1C(=O)[C@@]2(C)[C@H]([C@H](OC(=O)c3ccccc3)[C@]3(O)C[C@H](OC(=O)[C@H](O)[C@@H](NC(=O)c4ccccc4)c4ccccc4)C(C)=C1C3(C)C)[C@]1(OC(C)=O)CO[C@@H]1C[C@@H]2O` [paclitaxel, Paclitaxel] the IC50 ([1]; comparison control medium (0.015 (w/v)% deacylated gellan gum)) was 2.9 nM, the IC50 ([1]; negative control medium (DMEM, 10% FBS alone)) was 4.4 nM and the “relative cell number (no anticancer agent = 1)” value ([1]; paclitaxel 0.001 μM, comparison control medium (0.015 (w/v)% deacylated gellan gum)) was 0.842. For the same compound, the “relative cell number (no anticancer agent = 1)” value ([1]; paclitaxel 0.001 μM, negative control medium (DMEM, 10% FBS alone)) was 1.004, the “relative cell number (no anticancer agent = 1)” value ([1]; paclitaxel 0.01 μM, comparison control medium (0.015 (w/v)% deacylated gellan gum)) was 0.156 and the “relative cell number (no anticancer agent = 1)” value ([1]; paclitaxel 0.01 μM, negative control medium (DMEM, 10% FBS alone)) was 0.249. The IC50 ([2]; Homo sapiens, A549, high content analysis by cell image analysis, number of spheres of not less than 5 cells, low-molecular agar-containing medium, read-out: 50% inhibitory concentration) was 4.1 nM, the “average cell number per sphere” value ([2]; agent 0.001 μM) was 4.817 and the “average dead cell number in sphere” value ([2]; agent 0.001 μM) was 0.064. For the same compound, the “average sphere number per 20 mm^2” value ([2]; agent 0.001 μM) was 297.7, the projected area ([2]; agent 0.001 μM) was 1271 μm^2 and the “average cell number per sphere” value ([2]; agent 0.01 μM) was 2.3. For the same compound, the “average dead cell number in sphere” value ([2]; agent 0.01 μM) was 0.336, the “average sphere number per 20 mm^2” value ([2]; agent 0.01 μM) was 187 and the projected area ([2]; agent 0.01 μM) was 797 μm^2. The “average cell number per sphere” value ([2]; agent 0.1 μM) was 1.662, the “average dead cell number in sphere” value ([2]; agent 0.1 μM) was 0.591 and the “average sphere number per 20 mm^2” value ([2]; agent 0.1 μM) was 133. For the same compound, the projected area ([2]; agent 0.1 μM) was 647 μm^2.
